We go through 11 molecules from US20260234165A1, “MACROCYCLIC COMPOUNDS, PREPARATION METHOD THEREFOR, AND USE THEREOF” (GENFLEET THERAPEUTICS (SHANGHAI) INC., priority 2004, published 2026).

Common to all, as to assay type: cell-based, human
In assay [1] the test system is AsPC-1 cells (KRAS G12D mutation). The experiment in a line: 3D cell proliferation assay (CellTiter Glo-3D), AsPC-1. To be noted: medium with 2% FBS, read-out: AsPC-1 AP IC50. Summed up:
(§1)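 Luminescence read-out (CellTiter-Glo 3D) after 5-day compound exposure at 37 °C, 5% CO2. Cells: NCI-H441 and AsPC-1, 800/well, RPMI-1640 + 2% FBS, 0.1% DMSO final. IC50 by four-parameter fit of % inhibition against log concentration.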
For orientation: In ATP-based viability assays light output follows the ATP content of the culture.

Assay [2] deals with p-ERK in NCI-H441 cells (KRAS G12V mutation). The experiment in a line: Cell p-ERK assay (HTRF) in NCI-H441 cells. The note with it: NCI-H441 cells, 3 h compound incubation, HTRF p-ERK T202/Y204, read-out: H441 p-ERK IC50. An outline of the steps:
(§2)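 AsPC-1 (10000/well) or NCI-H441 (20000/well) cells were seeded in RPMI-1640 with 10% FBS, grown overnight, then exposed to 3.16-fold compound dilutions (0.1% DMSO) for 3 h at 37 °C. Lysates were read for phospho-ERK T202/Y204 by HTRF; IC50 came from four-parameter fits of inhibition versus DMSO and blank wells.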
(In general: Time-resolved FRET reads energy transfer from a long-lived donor to a nearby acceptor.)

The test system of assay [3] is p-ERK in AsPC-1 cells (KRAS G12D mutation). Briefly: Cell p-ERK assay (HTRF) in AsPC-1 cells. The note with it: AsPC-1 cells, 3 h compound incubation, HTRF p-ERK T202/Y204, read-out: AsPC-1 p-ERK IC50. Summed up:
as §2

In assay [4] the test system is NCI-H441 cells. The experiment in a line: 3D cell proliferation assay (CellTiter Glo-3D), NCI-H441. The note with it: medium with 2% FBS, read-out: H441 AP IC50. An outline of the steps: as §1
[5] abbreviates: Homo sapiens, ASPC1, 3D cell proliferation (CellTiter Glo-3D).
Where [6] appears, read: Homo sapiens, NCI-H441, 3D cell proliferation (CellTiter Glo-3D).
Setting [7] is: 3D cell proliferation (CellTiter Glo-3D).

The structures appear in SMILES notation. Like-named read-outs stand apart in the source and are kept apart here.

What is called IC50 is the concentration needed to halve the response being measured. In the case of `CCn1c(-c2cc(C#CCN3CCCOCC3)cnc2[C@H](C)OC)c2c3cc(ccc31)-c1csc(n1)C[C@H](NC(=O)C(F)(F)C1CC1)C(=O)N1CCC[C@H](N1)C(=O)OCC(C)(C)C2` (atropisomer, axis not shown; (Ra)) [Compound Z927], the IC50 in assay [1] (setting [5]) came to 6340 pM; in assay [2] (Homo sapiens, NCI-H441, 3 h), 1770 pM; in assay [3] (Homo sapiens, ASPC1, 3 h), 3890 pM; in assay [4] (setting [6]) it was 3860 pM.

`CCn1c(-c2cc(N3CCN(C)CC3)cnc2[C@H](C)OC)c2c3cc(ccc31)-c1csc(n1)C[C@H](Nc1cc(C)cnn1)C(=O)N1CCC[C@H](N1)C(=O)OCC(C)(C)C2` [Compound Z559, (6^3S,4S,Z)-1^1-ethyl-(R3)-1^2-(2-((S)-1-methoxyethyl)-5-(4-methylpiperazin-1-yl)pyridin-3-yl)-10,10-dimethyl-4-((5-methylpyridazin-3-yl)amino)-6^1,6^2,6^3,6^4,6^5,6^6-hexahydro-1^1H-8-oxa-2(4,2)-thiazola-1(5,3)-indola-6(1,3)-pyridazinacycloundecaphane-5,7-dione]: the 50% inhibitory concentration (IC50) in assay [1] (setting [5]) was found to be 47600 pM; in assay [2] (Homo sapiens, NCI-H441, 3 h), 14600 pM; in assay [3] (Homo sapiens, ASPC1, 3 h), 45000 pM; in assay [4] (setting [6]), 17500 pM.

Consider `CO[C@@H](C)c1ncc(OCCN2CCOC3(CC3)C2)cc1-c1c2c3cc(ccc3n1CC(F)(F)F)-c1csc(n1)C[C@H](NC(=O)[C@H]1[C@H](C)[C@@H]1C)C(=O)N1CCC[C@H](N1)C(=O)OCC1(CC1)C2` [Compound Z350, (1r,2R,3S)—N-((3′S,4′S,Z)-2′-(5-(2-(4-oxa-7-azaspiro[2.5]octan-7-yl)ethoxy)-2-((S)-1-methoxyethyl)pyridin-3-yl)-5′,7′-dioxo-1′-(2,2,2-trifluoroethyl)spiro[cyclopropane-1,10′-8-oxa-2(4,2)-thiazola-1(5,3)-indola-6(1,3)-pyridazinacycloundecaphan]-4-yl)-2,3-dimethylcyclopropane-1-carboxamide], for which the IC50 in assay [1] (setting [7]) is 53400 pM; in assay [2] it was 9100 pM; in assay [3] (Homo sapiens, ASPC1, 3 h) it was 16300 pM; in assay [4] (setting [7]) it was 19700 pM.

Take `CCn1c(-c2cc(C#C[C@H]3COCCN3C)cnc2[C@H](C)OC)c2c3cc(ccc31)-c1csc(n1)C[C@H](NC(=O)[C@H]1[C@H](C)[C@@H]1C)C(=O)N1CCC[C@H](N1)C(=O)OCC(C)(C)C2` (atropisomer, axis not shown; (Ra)) [Compound Z673, (1r,2R,3S)—N-((6^3S,4S,Z)-1^1-ethyl-(Ra)-1^2-(2-((S)-1-methoxyethyl)-5-(((S)-4-methylmorpholin-3-yl)ethynyl)pyridin-3-yl)-10,10-dimethyl-5,7-dioxo-6^1,6^2,6^3,6^4,6^5,6^6hexahydro-1^1H-8-oxa-2(4,2)-thiazola-1(5,3)-indola-6(1,3)-pyridazinacycloundecaphane-4-yl)-2,3-dimethylcyclopropane-1-carboxamide]: the IC50 in assay [1] (setting [5]) turned out to be 520 pM; in assay [2] (Homo sapiens, NCI-H441, 3 h), 330 pM; in assay [3] (Homo sapiens, ASPC1, 3 h), 270 pM; in assay [4] (setting [6]) it was 230 pM.

In the case of `CCn1c(-c2cc(N3CCC(N4CCS(=O)(=O)CC4)CC3)cnc2[C@H](C)OC)c2c3cc(ccc31)-c1csc(n1)C[C@H](NC(=O)[C@H]1[C@H](C)[C@@H]1C)C(=O)N1CCC[C@H](N1)C(=O)OCC(C)(C)C2` (atropisomer, axis not shown; (Ra)) [Compound Z855, (1r,2R,3S)—N-((6S,4S,Z)—(Ra)-1^2-(5-(4-(1,1-dioxidothiomorpholino)piperidin-1-yl)-2-((S)-1-methoxyethyl)pyridin-3-yl)-1^1-ethyl-10,10-dimethyl-5,7-dioxo-6^1,6^2,6^3,6^4,6^5,6^6-hexahydro-1^1H-8-oxa-2(4,2)-thiazola-1(5,3)-indola-6(1,3)-pyridazinacycloundecaphane-4-yl)-2,3-dimethylcyclopropane-1-carboxamide], the half-maximal inhibitory concentration (IC50) in assay [1] (setting [5]) is 220 pM; in assay [2] (Homo sapiens, NCI-H441, 3 h) it was 170 pM; in assay [3] (Homo sapiens, ASPC1, 3 h) it was 290 pM; in assay [4] (setting [6]), 160 pM.

As for `[2H]C([2H])([2H])C1(C([2H])([2H])[2H])COC(=O)[C@@H]2CCCN(N2)C(=O)[C@@H](NC(=O)[C@H]2[C@H](C)[C@@H]2C)Cc2nc(cs2)-c2ccc3c(c2)c(c(-c2cc(OCCN4CCOC5(CC5)C4)cnc2[C@H](C)OC)n3CC)C1` (atropisomer, axis not shown; (Ra)) [Compound Z501, (1r,2R,3S)—N-((6^3S,4S,Z)-1^1-ethyl-(Ra)-1^2-(5-(2-(4-oxa-7-azaspiro[2.5]octan-7-yl)ethoxy)-2-((S)-1-methoxyethyl)pyridin-3-yl)-10,10-bis(methyl-d3)-5,7-dioxo-6^1,6^2,6^3,6^4,6^5,6^6-hexahydro-11H-8-oxo-2(4,2)-thiazola-1(5,3)-indola-6(1,3)-pyridazinacycloundecaphane-4-yl)-2,3-dimethylcyclopropane-1-carboxamide], the IC50 in assay [1] (setting [5]) is 520 pM; in assay [2] (Homo sapiens, NCI-H441, 3 h), 220 pM; in assay [3] (Homo sapiens, ASPC1, 3 h), 350 pM; in assay [4] (setting [6]), 220 pM.

On to `CCn1c(-c2cc(OCCN3CCS(=O)(=O)CC3)cnc2[C@H](C)OC)c2c3cc(ccc31)-c1csc(n1)C[C@H](NC(=O)[C@H]1[C@H](C)[C@@H]1C)C(=O)N1CCC[C@H](N1)C(=O)OCC(C)(C)C2` (atropisomer, axis not shown; (Ra)) [Compound Z469, (0r,2R,3S)—N-((6^3S,4S,Z)—(Ra)-1^2-(5-(2-(1,1-dioxidothiomorpholino)ethoxy)-2-((S)-1-methoxyethyl)pyridin-3-yl)-1^1-ethyl-10,10-dimethyl-5,7-dioxo-6^1,6^2,6^3,6^4,6^5,6^6-hexahydro-1^1H-8-oxa-2(4,2)-thiazola-1(5,3)-indola-6(1,3)-pyridazinacycloundecaphane-4-yl)-2,3-dimethylcyclopropane-1-carboxamide], for which the IC50 in assay [1] (setting [5]) was 240 pM; in assay [2], 350 pM; in assay [3], 110 pM; in assay [4] (setting [6]), 90 pM.

For the molecule `CCn1c(-c2cc(OCCN3CCC4(CC4)C3)cnc2[C@H](C)OC)c2c3cc(ccc31)-c1csc(n1)C[C@H](NC(=O)[C@H]1[C@H](C)[C@@H]1C)C(=O)N1CCC[C@H](N1)C(=O)OCC1(CC1)C2` [Compound Z415, (1r,2R,3S)—N-((3′S,4′S,Z)-2′-(5-(2-(5-azaspiro[2.4]heptan-5-yl)ethoxy)-2-((S)-1-methoxyethyl)pyridin-3-yl)-1′-ethyl-5′,7′-dioxaspiro[cyclopropane-1,10′-8-oxa-2(4,2)-thiazola-1(5,3)-indola-6(1,3)-pyridazinacycloundecaphan]-4′-yl)-2,3-dimethylcyclopropane-1-carboxamide], the IC50 in assay [1] (setting [5]) turned out to be 12600 pM; in assay [2] (Homo sapiens, NCI-H441, 3 h), 11700 pM; in assay [3] (Homo sapiens, ASPC1, 3 h), 10100 pM; in assay [4] (setting [6]) it was 7540 pM.

Regarding `CO[C@@H](C)c1ncc(OCCN2CCS(=O)(=O)CC2)cc1-c1c2c3cc(ccc3n1C(C)C)-c1csc(n1)C[C@H](NC(=O)[C@H]1C[C@@H]1C)C(=O)N1CCC[C@H](N1)C(=O)OCC(C)(C)C2` (atropisomer, axis not shown; (Ra)) [Compound Z603, (1S,2S)—N-((6^3S,4S,Z)—(Ra)-1^2-(5-(2-(1,l-dioxidothiomorpholino)ethoxy)2-((S)-1-methoxyethyl)pyridin-3-yl)-1^1-isopropyl-10,10-dimethyl-5,7-dioxo-6^1,6^2,6^3,6^4,6^5,6^6-hexahydro-1^1H-8-oxa-2(4,2)-thiazola-1(5,3)-indola-6(1,3)-pyridazinacycloundecaphane-4-yl)-2-methylcyclopropane-1-carboxamide], the IC50 in assay [1] (setting [5]) is 890 pM; in assay [2] (Homo sapiens, NCI-H441, 3 h), 220 pM; in assay [3] (Homo sapiens, ASPC1, 3 h), 600 pM; in assay [4] (setting [6]), 310 pM.

Consider `CCn1c(-c2cc(OCC3(N4CCC4)CC3)cnc2[C@H](C)OC)c2c3cc(ccc31)-c1csc(n1)C[C@H](NC(=O)[C@H]1[C@H](C)[C@@H]1C)C(=O)N1CCC[C@H](N1)C(=O)OCC1(CC1)C2` [Compound Z333], for which the IC50 in assay [1] (setting [5]) amounted to 29200 pM; in assay [2] (Homo sapiens, NCI-H441, 3 h) it was 10900 pM; in assay [3] (Homo sapiens, ASPC1, 3 h), 18800 pM; in assay [4] (setting [6]) it was 18600 pM.

As for `CCn1c(-c2cc(CCN3CCS(=O)(=O)CC3)cnc2[C@H](C)OC)c2c3cc(ccc31)-c1csc(n1)C[C@H](NC(=O)[C@H]1[C@H](C)[C@@H]1C)C(=O)N1CCC[C@H](N1)C(=O)OCC(C)(C)C2` (atropisomer, axis not shown; (Ra)) [Compound Z485, (1r,2R,3S)—N-((6^3S,4S,Z)—(Ra)-1^2-(5-(2-(1,1-dioxidothiomorpholino)ethyl)-2-((S)-1-methoxyethyl)pyridin-3-yl)-11-ethyl-10,10-dimethyl-5,7-dioxo-6^1,6^2,6^3,6^4,6^5,6^6-hexahydro-1^1H-8-oxa-2(4,2)-thiazola-1(5,3)-indola-6(1,3)-pyridazinacycloundecaphane-4-yl)-2,3-dimethylcyclopropane-1-carboxamide], the half-maximal inhibitory concentration (IC50) was determined as 960 pM in assay [1] (setting [5]); 350 pM in assay [2] (Homo sapiens, NCI-H441, 3 h); 730 pM in assay [3] (Homo sapiens, ASPC1, 3 h); 420 pM in assay [4] (setting [6]).
